This is an account of results in US11857555B2, “Aqueous pharmaceutical formulation of hydrocortisone sodium phosphate and monothioglycerol” (ANTARES PHARMA, INC., priority 2020, dated 2024).

Series [1] is described as follows: Forced degradation of HCP API under stress conditions (0.1 N HCl, 0.1 N NaOH, dry heat). It is filed as physicochemical. As to conditions: 3 different stress conditions: 0.1 N HCl, qualitative. The protocol: To develop this method, Hydrocortisone sodium phosphate API was kept under stress conditions. These stress conditions included treatment with 0.1 N HCl, 0.1 N NaOH and dry heat. This was performed to investigate the nature of API and its compatibility with the stress conditions. It also helped generate degradation products to assess the specificity of the HPLC method under development. Information on degradation products and the conditions used to generate them was used to optimize the method for better resolution of such degradation products on chromatogram. FIGS. 3A-3C show chromatograms of HCP under stress conditions.
The proportions in which the degradants formed depended on the stress condition. Stress studies performed on the API were done for qualitative purpose only.

For series [2] the following is noted: light, strong acids and alkalies; cited from earlier work.

Turning to `C[C@]12CCC(=O)C=C1CC[C@@H]1[C@@H]2[C@@H](O)C[C@@]2(C)[C@H]1CC[C@]2(O)C(=O)COP(=O)([O-])[O-].[Na+].[Na+]` [HCP, Hydrocortisone sodium phosphate], in series [1], the “forced degradation outcome (in words)” value was “formation of Hydrocortisone, other common degradants”. In the case of `C[C@]12CCC(=O)C=C1CC[C@@H]1[C@@H]2[C@@H](O)C[C@@]2(C)[C@H]1CC[C@]2(O)C(=O)CO` [Hydrocortisone], the “stability (in words)” value in series [2] is “sensitive to light and unstable in strong acids and alkalies”.
